Assays:
[1] = target: IDO1 (Homo sapiens, UniProt P14902); experiment: IDO1 HeLa RapidFire MS Assay; assay type: cell-based; parameters: stimulated with human interferon-γ (IFN-γ); conditions: HeLa cells stimulated with IFN-γ; kynurenine detected by mass spectrometry; 2 days; read-out: IDO1 HeLa pIC50 (converted)
Experimental: IDO1 HeLa RapidFire MS Assay
Compounds of the present invention were tested via high-throughput cellular assays utilizing detection of kynurenine via mass spectrometry and cytotoxicity as end-points. For the mass spectrometry and cytotoxicity assays, human epithelial HeLa cells (CCL-2; ATCC®, Manassas, Va.) were stimulated with human interferon-γ (IFN-γ) (Sigma-Aldrich Corporation, St. Louis, Mo.) to induce the expression of indoleamine 2, 3-dioxygenase (IDO1). Compounds with IDO1 inhibitory properties decreased the amount of kynurenine produced by the cells via the tryptophan catabolic pathway. Cellular toxicity due to the effect of compound treatment was measured using CellTiter-Glo® reagent (CTG) (Promega Corporation, Madison, Wis.), which is based on luminescent detection of ATP, an indicator of metabolically active cells. […]
Following incubation, the 384-well plates were removed from the incubator and allowed to equilibrate to room temperature for 30 minutes. […] After a twenty minute incubation at room temperature, luminescence was read on an EnVision® Multilabel Reader (PerkinElmer Inc., Waltham, Mass.). […]

[2] = tested on: conversion of T cells into CD4+FoxP3+ Tregs; conditions: co-culture of DCs and naive CD4+CD25- T cells; cited from earlier work
[3] = tested on: PAN02 pancreatic cells; conditions: cited from earlier work

Sequence of IDO1 (P14902 whole entry): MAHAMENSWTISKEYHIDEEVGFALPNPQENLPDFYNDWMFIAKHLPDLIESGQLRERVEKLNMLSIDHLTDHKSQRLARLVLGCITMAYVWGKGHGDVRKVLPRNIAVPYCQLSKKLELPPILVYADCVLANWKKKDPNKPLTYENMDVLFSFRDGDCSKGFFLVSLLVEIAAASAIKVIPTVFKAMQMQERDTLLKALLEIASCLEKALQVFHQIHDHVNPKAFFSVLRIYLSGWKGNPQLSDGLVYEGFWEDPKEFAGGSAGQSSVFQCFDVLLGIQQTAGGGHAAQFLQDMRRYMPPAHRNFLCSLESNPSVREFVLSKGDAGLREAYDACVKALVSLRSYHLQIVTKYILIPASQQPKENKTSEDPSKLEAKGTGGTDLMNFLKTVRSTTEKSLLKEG

IC50 [1] [nM] | Structure (SMILES) | conversion of T cells into CD4+FoxP3+ Tregs [2] | inhibition of tumor growth ([3]; PAN02 syngeneic model, immunocompetent mice, orally dosed) | effect on tumor growth ([3]; same tumor implanted in immune-deficient mice)
158 | CC(C)CN(c1ccc(C2(C(=O)O)CC2)nc1Nc1ccc(Cl)cn1)C1CCOCC1 [Example 15, 1-(6-((5-chloropyridin-2-yl)amino)-5-(isobutyl(tetrahydro-2H-pyran-4-yl)amino)pyridin-2-yl)cyclopropane-1-carboxylic acid] | – | – | –
10 | CC(C)CN(c1ccc(C2(C(=O)NS(C)(=O)=O)CC2)nc1Nc1ccc(Cl)cn1)C1CCOCC1 [Example 16, 1-(6-((5-chloropyridin-2-yl)amino)-5-(isobutyl(tetrahydro-2H-pyran-4-yl)amino)pyridin-2-yl)-N-(methylsulfonyl)cyclopropane-1-carboxamide] | – | – | –
– | NS(=O)(=O)NCCNc1nonc1C(=NO)Nc1ccc(F)c(Br)c1 [INCB204360, epacadostat] | blocked the conversion | significant dose-dependent inhibition of tumor growth | without effect

Source: patent US20210139467A1 (GLAXOSMITHKLINE INTELLECTUAL PROPERTY DEVELOPMENT LIMITED, priority 2017, published 2021)
